By melting point is commonly meant the temperature, or range, at which the solid turns liquid.

The text below walks through data of patent US9315532B2, “Fatty acid carbohydrate hybrid molecules as therapeutic agents and methods thereof” (The Johns Hopkins University, priority 2005, dated 2016).

Molecules are shown by their SMILES.

In data set [1] the test system is Jurkat cells. Kind of data set: Flow cytometry analysis of cell cycle status (PI/RNase A). Type of data set: cell-based, human. The conditions noted are these: human cancer cells. The protocol:
The cell cycle arrest induced by butyrate analogs was studied following the standard protocol (49). Briefly, Jurkat cells (2.3×10^5 cells/mL) were incubated with various concentrations of 1 (0, 25, 50, 75, 100, 150 and 200 μM); 2 (200 μM); 3 (200 μM); and 4 (200 μM) for five days. The cells were then harvested, counted, washed twice with PBS, re-suspended in PBS (500 μL), added to a cold solution of 78% aqueous ethanol (4.5 mL) using a glass Pasteur pipette and kept at 2.0° C. for at least 24 h. The fixed cells were centrifuged twice to remove the ethanol completely, re-suspended in propidium iodide (PI)/ribonuclease A (RNase A) staining buffer (BD Pharmingen, Catalog No. 550825, San Diego, Calif.) (500 μL for 1.0×10^6 cells), incubated at 37° C. for 15 min and analyzed by flow cytometry. The cellular aggregates were excluded from single cell populations using an area-width plot (FL2—PT fluorescence) for the cell cycle status determination. At least 10,000 gated events were counted for each determination.
Jurkat cells (2.5×10^5 cells/mL) were incubated with either ethanol (0.2%) or 1 (100 μM or 200 μM). Aliquots of cell suspensions were taken on day 0 and days 2-6, washed with PBS (twice) and fixed in 75% ethanol at 2.0° C. for at least 48 h. The cells were stained with PI/RNase staining buffer and analyzed by flow cytometry as given above.
Background: Flow cytometry measures light scatter and fluorescence of single cells or particles in a stream.

The test system of data set [2] is Jurkat cells. As to the kind of experiment: Toxicity and growth inhibition assays (cell counts on days 3, 5 and 15). Type of data set: cell-based, human. The conditions noted are these: Jurkat cells, 0-320 μM. The protocol: For cell culture studies, But4ManNAc (1) (50) was used as a mixture of anomers (α/β=10/90), But4GlcNAc (2) as pure α-anomer and But5Man (3) as pure β-anomer (It is noteworthy that the intracellular hydrolysis of butyrate esters makes the anomeric configuration less relevant in these studies and we found similar cellular effects between the α- and β-anomers in long term toxicity). Stock solutions of the sugar analogs were made in ethanol at concentrations of 10 mM and 50 mM. In the case of cells growing in suspension the solutions of 1-4 (or an ethanol control at an equivalent volume) were coated onto dishes and the ethanol was allowed to evaporate prior to plating. Unless otherwise noted, throughout this study Jurkat cells (Clone E-6, ATCC, Manassas, Va.) were cultured in RPMI 1640 medium supplemented with 300 mg/L glutamine, 5.0% fetal bovine serum (HyClone, Logan, Utah) and 1.0% of a 100× dilution of a pen/strep stock solution containing penicillin (100 units/mL) and streptomycin (100 μg/mL); HL-60 cells (ATCC, Manassas, Va.) were cultured in RPMI 1640 medium supplemented with 10% FBS and pen/strep; and AD293 (HEK) cells (Stratagene, La Jolla, Calif.) were grown in DMEM medium with 10% FBS and pen/strep. In all cases, cells were incubated in a standard 37° C. in a 5.0% CO2, water-saturated environment. Cell counting was performed with a Beckman-Coulter Z2 particle counter and hemacytometer.
Solutions of the analogs in EtOH (10 mM stock) were coated onto 24-well plates at a range of concentrations from 0-320 μM and ethanol was allowed to evaporate. Jurkat cells (1.0×10^5 cells) in 0.5 mL of medium were plated in each well (day 0). On days 3 and 5, fresh medium (1.0 mL) was added to each well. Cell cultures were mixed by gentle pipetting and 100 μL of cell suspension was taken from each well and counted. On days 7, 9, 11, 13 and 15, 1.0 mL of cell suspension was removed from each well after thorough mixing and fresh medium (1.0 mL) was added. Cells were counted on day 15 and the cell density was plotted as a percentage of control (as was done for cell counts from days 3 and 5).

In data set [3] the test system is Jurkat cells. As to the kind of experiment: Cell viability assay (trypan blue exclusion). Type of data set: cell-based, human. The conditions noted are these: 200 μM. The method, then: Jurkat cells (2.0×10^5 cells/mL) were seeded with 1-4 at 200 μM in 6-well T. C. plates. Aliquots of cell suspension (20 μL) were removed on a daily basis diluted with either PBS (20 μL) or trypan blue solution (20 μL) and cell viability was determined by using the standard trypan blue exclusion method; three replicate counts were taken for each condition.

Data set [4] deals with Jurkat cells. As to the kind of experiment: Toxicity of sodium butyrate (5) towards cells primed with ManNAc. Type of data set: cell-based, human. The method, then:
Jurkat cells (5.0×10^5 per mL) were incubated with PBS and ManNAc at 50 or 100 mM. After 48 h, the cells were counted, harvested, washed once in fresh medium and plated in a 24-well plate containing various concentrations of sodium butyrate (5) (0-2.0 mM; a stock solution of 200 mM in PBS was used for dilutions and control samples). Cell cultures were maintained and growth was monitored for 15 days as described above under the toxicity and growth inhibition assays.

Another data set deals with AD293 (HEK) cells. As to the kind of experiment: Morphological changes / toxicity in AD293 (HEK) cells. The conditions noted are these: 2 days; 1 at 250 μM, 5 at 5.0 mM. Type of data set: cell-based, human. The method, then:
(§1) The studies on morphological changes induced by sodium butyrate (5) and But4ManNAc (1) were performed following a reported procedure (45). Briefly, HeLa cells (200,000 cells per well in a 6-well plate) were plated and allowed to form monolayers. After 24 h, the supernatant was aspirated, fresh medium (4.0 mL) was added and treated with either ethanol (20 μL (0.5%), control), 5 (5.0 mM), or 1 (250 μM). For the AD 293 (HEK) cells 2.0×10^6 cells in 10 mL of medium (100 mm tissue culture dishes) were plated and treated, immediately after plating, with either ethanol (50 μL, control), 5 (5.0 mM), or 1 (250 μM). Images were acquired at various time intervals under bright field using a Nikon Eclipse TE200 inverted microscope equipped with a DXM 1200 digital camera.

A further data set has as its system p21WAF1. As to the kind of experiment: Endogenous p21WAF1 assay (anti-p21WAF1 antibody, flow cytometry) in Jurkat cells. In kind it is cell-based, human. The conditions noted are these: one week, 1 at 250 μM, 5 at 2.5 mM. The method, then:
Endogenous expression of p21^WAF1 was detected following a reported procedure (58) with minor modifications. Jurkat cells (5.0×10^6 cells in 10 mL medium) were incubated with either ethanol or 1 (250 μM or 5 (2.5 mM). On a daily basis, aliquots of cells (˜1.0×10^6 per sample) were taken, washed with PBS (2×1.0 mL), fixed with Reagent A (Fix and Perm Kit, Caltag Laboratories, CA, Cat. No. GAS-003) for 10 min at room temperature, washed with washing buffer (PBS containing 5.0% FBS, 0.1% NaN3), re-suspended in 95% v/v methanol and kept on ice. After 30 min, cells were again washed with washing buffer and incubated with FITC-conjugated anti-p21^WAF1 antibody (Calbiochem, San Diego, Calif., Cat. No. OP64F) at 2.0 μg/mL in Reagent B (100 μL) (Fix and Perm Kit, Caltag Laboratories) for 1.0 h at room temperature in the dark. Finally, cells were re-suspended in washing buffer (500 μL) and analyzed by flow cytometry. Three replicate samples were taken for each condition and 10,000 events were counted for each sample.

The test system of another data set is HeLa cells. As to the kind of experiment: Morphological changes to HeLa cells. In kind it is cell-based, human. The conditions noted are these: 3 days; 1 at 250 μM, 5 at 5.0 mM. The protocol: as §1
The test system of another data set is p21WAF1/Cip1 promoter. Kind of data set: Luc-p21WAF1/Cip1 luciferase reporter gene assay in AD293 (HEK) cells. Type of data set: cell-based, human. The method, then: The plasmid Luc-p21^Cip1/WAF1 (a gift from Vogelstein Laboratory, JHMI, Baltimore, Md.) was amplified and purified utilizing a plasmid maxi kit (Cat. No. 12163. Qiagen, Valencia, Calif.) following the manufacturer's protocol. HEK cells (2.5×10^5) were seeded in 3.0 mL medium and grown in 6-well T. C. plates. Transfection was performed using lipofectamine 2000 (Cat. No. 11668-019, Invitrogen, Carlsbad, Calif.) following the protocol supplier's protocol. Cells were trypsinized 24 h after transfection and seeded at 250,000 cells per well with concentrations of 1-4 shown in FIG. 3a or 1, 5, and ManNAc plus 5 at the concentrations shown in FIG. 3c. After 72 h, the cells were trypsinized, counted and lysed in 300 μL of luciferase cell culture lysis buffer and diluted five-fold in the same buffer. Luminometry was performed utilizing the ‘Luciferase Assay System’ (Cat. No. 1500, 4550, Promega, Madison, Wis.) following supplier's protocol. Luciferase Assay Reagent (100 μL) was added to the cell lysate (20 μL) in luminometer tubes (Cat. No. 55.476, Sarstedt, Newton, N.C.) and the luminescence was measured immediately using a Berthold Sirius Luminometer. The final values were normalized relative to ethanol-treated controls and reported on a per cell basis.

Data set [5] deals with sialic acid biosynthesis in Jurkat cells. Kind of data set: Assay for total sialic acid production (periodate-resorcinol). In kind it is cell-based, human. The conditions noted are these: 50 and 100 mM, 48 h. The method, then:
Jurkat cells (5.0×10^6 cells in 10 mL medium) were incubated with 1-5 at various concentrations. […] The cell lysates were analyzed by using an adapted version of the periodate-resorcinol assay (36, 59) with the periodic acid oxidation step performed on ice to allow quantification of total (i.e., free monosaccharide plus glycoconjugate-bound) sialic acid. For each assay, a standard curve was obtained using N-acetylneuraminic acid (Pfanstiehl, Waukegan, Ill.) for calibration.

As for `CCCC(=O)OCC(COC(=O)CCC)OC(=O)CCC` [compound 4, tributyrin, reference compound], the “apoptosis versus cell cycle arrest (summary)” value with Jurkat cells [1] is “only provided transient cell cycle arrest”. In addition, the “long term growth characteristics (day 15)” value in the data set with Jurkat cells [2] was “resumed cell growth over the long term”. The “cell proliferation at early time points (days 3 & 5)” value with Jurkat cells [2] (days 3 and 5) was “minimal inhibition”.
With `CCCC(=O)OC[C@H]1OC(OC(=O)CCC)[C@@H](OC(=O)CCC)[C@@H](OC(=O)CCC)[C@@H]1OC(=O)CCC` (stereo partly drawn) [compound 3, 1,2,3,4,6-Penta-O-butanoyl-α,β-D-mannopyranose], in the data set with Jurkat cells [1], the “apoptosis versus cell cycle arrest (summary)” value is recorded as “only provided transient cell cycle arrest”. For the same compound, in the data set on Jurkat cells [3], the “reduced cell viability in trypan blue assay” value was “not”. Besides, the “long term growth characteristics (day 15)” value in the data set with Jurkat cells [2] was “resumed cell growth over the long term”.
Regarding `CCCC(=O)[O-].[Na+]` [compound 5, Sodium n-butyrate, reference compound], the “growth of ManNAc-treated cells compared to untreated controls” value with Jurkat cells [4] (Jurkat cells pre-incubated with ManNAc 50 or 100 mM, 5 at 0-2.0 mM, five days) is recorded as “inhibited”. Besides, the “concentration at which ManNAc-treated cells showed susceptibility” value in the data set on Jurkat cells [4] (Jurkat cells pre-incubated with ManNAc, day 15) is at least 2.0 mM. The “growth of control cells (without ManNAc)” value with Jurkat cells [4] (Jurkat cells, 5 at 0-2.0 mM, day 15) is recorded as “almost completely recovered from early inhibition”. Also, in the data set with Jurkat cells [4] (Jurkat cells, day 15), the “level required for even partial cell inhibition and toxicity, when used separately” value was determined as 2.0 mm. Besides, in the data set with AD293 (HEK) cells, the “apoptosis / toxicity in AD293 cells” value is “toxicity”. Moreover, in the data set with p21WAF1, the “endogenous p21WAF1 levels” value is recorded as “increased p21^WAF1 levels”. The “morphological changes / differentiation of HeLa cells” value in the data set with HeLa cells is on record as “growth of extended processes”. For the same compound, the “concentration level required for p21WAF1/Cip1 activation” value in the data set with p21WAF1/Cip1 promoter is “millimolar concentrations required”.
For the compound `CC(=O)N[C@@H]1C(O)O[C@H](CO)[C@@H](O)[C@@H]1O` (stereo partly drawn) [ManNAc, N-acetyl-D-mannosamine, reference compound], the “increase in total sialic acid” value in data set [5] was 20-30 fold. Besides, the “level required for even partial cell inhibition and toxicity, when used separately” value in the data set with Jurkat cells [4] (Jurkat cells, day 15) is 100 mM.
`CCCC(=O)OC[C@H]1O[C@H](OC(=O)CCC)[C@H](NC(C)=O)[C@@H](OC(=O)CCC)[C@@H]1OC(=O)CCC` [compound 2, 2-Acetamido-1,3,4,6-tetra-O-butanoyl-2-deoxy-α-D-glucopyranose] yielded a melting point of 152 to 154 °C. The “apoptosis versus cell cycle arrest (summary)” value in the data set on Jurkat cells [1] was “only provided transient cell cycle arrest”. Moreover, the “reduced cell viability in trypan blue assay” value with Jurkat cells [3] is listed as “not”. Also, the “long term growth characteristics (day 15)” value in the data set with Jurkat cells [2] is “resumed cell growth over the long term”.
